Consider 13 compounds from ChEMBL document CHEMBL4414674, “Paraconiothins A-J: Sesquiterpenoids from the Endophytic Fungus Paraconiothyrium brasiliense ECN258” (J Nat Prod, 2019).

What all share (format): cell-based
For series [1], the target named is T1, Peroxisome proliferator-activated receptor gamma (Homo sapiens) (UniProt P37231).
T1 sequence (whole entry): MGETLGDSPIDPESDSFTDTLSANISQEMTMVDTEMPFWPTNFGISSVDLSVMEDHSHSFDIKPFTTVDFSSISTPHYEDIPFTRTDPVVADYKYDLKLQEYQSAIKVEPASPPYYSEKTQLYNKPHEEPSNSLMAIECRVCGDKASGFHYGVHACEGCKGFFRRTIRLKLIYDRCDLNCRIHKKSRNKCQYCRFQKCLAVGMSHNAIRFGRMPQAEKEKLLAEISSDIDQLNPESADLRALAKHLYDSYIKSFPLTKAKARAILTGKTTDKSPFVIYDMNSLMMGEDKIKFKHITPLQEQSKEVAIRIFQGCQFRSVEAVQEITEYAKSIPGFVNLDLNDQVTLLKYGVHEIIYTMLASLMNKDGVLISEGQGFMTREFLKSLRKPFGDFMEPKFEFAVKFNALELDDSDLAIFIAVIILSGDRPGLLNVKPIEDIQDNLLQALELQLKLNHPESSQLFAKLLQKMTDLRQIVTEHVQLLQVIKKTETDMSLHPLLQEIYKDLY
In words: Inhibition of PPARgamma (unknown origin) transfected in human HEK293 cells co-expressing CMV-beta galactosidase assessed as effect on beta-galactosidase activity at 50 uM after 48 hrs by luciferase reporter gene assay.

Series [2] concerns the target T2, Peroxisome proliferator-activated receptor delta (Homo sapiens) (UniProt Q03181).
T2 sequence (whole entry): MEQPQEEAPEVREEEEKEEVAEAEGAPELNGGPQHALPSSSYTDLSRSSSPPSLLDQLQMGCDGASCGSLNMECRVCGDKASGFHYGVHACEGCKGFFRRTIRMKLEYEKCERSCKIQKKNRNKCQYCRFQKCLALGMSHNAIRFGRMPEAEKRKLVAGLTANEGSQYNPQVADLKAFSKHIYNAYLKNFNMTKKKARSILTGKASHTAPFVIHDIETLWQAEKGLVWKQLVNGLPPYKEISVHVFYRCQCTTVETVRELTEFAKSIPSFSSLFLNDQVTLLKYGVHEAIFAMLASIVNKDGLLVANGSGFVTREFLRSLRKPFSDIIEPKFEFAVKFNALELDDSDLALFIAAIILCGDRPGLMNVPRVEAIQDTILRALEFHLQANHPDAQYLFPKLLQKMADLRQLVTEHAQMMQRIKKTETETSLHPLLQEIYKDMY
In words: Inhibition of PPARdelta (unknown origin) transfected in human HEK293 cells co-expressing CMV-beta galactosidase assessed as effect on beta-galactosidase activity at 50 uM after 48 hrs by luciferase reporter gene assay.

Series [3] concerns the target T3, Retinoic acid receptor alpha (Homo sapiens) (UniProt P10276).
T3 sequence (whole entry): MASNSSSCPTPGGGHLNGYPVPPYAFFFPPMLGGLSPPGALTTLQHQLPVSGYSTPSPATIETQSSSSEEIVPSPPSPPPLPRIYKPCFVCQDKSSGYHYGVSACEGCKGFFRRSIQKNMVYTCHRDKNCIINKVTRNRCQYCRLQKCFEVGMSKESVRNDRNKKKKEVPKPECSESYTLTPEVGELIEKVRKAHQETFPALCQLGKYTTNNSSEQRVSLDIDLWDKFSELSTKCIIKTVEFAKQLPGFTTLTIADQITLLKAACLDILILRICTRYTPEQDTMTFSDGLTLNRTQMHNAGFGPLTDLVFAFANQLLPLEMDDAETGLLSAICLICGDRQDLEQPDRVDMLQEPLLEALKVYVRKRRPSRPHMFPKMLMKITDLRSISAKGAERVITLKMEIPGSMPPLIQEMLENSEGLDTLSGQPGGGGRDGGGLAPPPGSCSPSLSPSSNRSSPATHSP
The experiment in a line: Inhibition of human RARalpha transfected in human HEK293 cells co-expressing CMV-beta galactosidase assessed as effect on beta-galactosidase activity at 50 uM after 48 hrs by luciferase reporter gene assay.

Series [4] concerns the target T4, Oxysterols receptor LXR-alpha (Homo sapiens) (UniProt Q13133).
T4 sequence (whole entry): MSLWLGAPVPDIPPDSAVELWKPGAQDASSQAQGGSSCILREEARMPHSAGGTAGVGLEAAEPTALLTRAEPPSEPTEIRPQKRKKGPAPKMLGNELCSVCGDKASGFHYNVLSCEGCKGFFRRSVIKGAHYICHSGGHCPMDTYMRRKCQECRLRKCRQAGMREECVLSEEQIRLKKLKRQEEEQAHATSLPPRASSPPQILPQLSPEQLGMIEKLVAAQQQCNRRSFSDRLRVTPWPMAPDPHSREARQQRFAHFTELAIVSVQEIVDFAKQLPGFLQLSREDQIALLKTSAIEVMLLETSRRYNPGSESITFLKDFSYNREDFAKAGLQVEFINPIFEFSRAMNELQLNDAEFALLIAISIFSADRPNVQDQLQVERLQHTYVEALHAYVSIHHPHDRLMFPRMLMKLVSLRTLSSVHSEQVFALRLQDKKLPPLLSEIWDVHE
In words: Inhibition of human LXRalpha transfected in human HEK293 cells co-expressing CMV-beta galactosidase assessed as inhibition on T0901317 response at 50 uM after 48 hrs by luciferase reporter gene assay.

Another series relates to HEK293. In words: Cytotoxicity against human HEK293 cells.

Each structure is given as a SMILES string. The source made the active and inactive calls. No cut-off for these calls is given here.

`C=C(CO)[C@@]12O[C@@H]1[C@@]1(C)C(=C[C@@H]2O)[C@H](O)CC[C@@H]1C`: the inhibition entry in series [1], in series [2] and in series [3] was “inactive” throughout.
`C=C(CO)c1ccc([C@@H](O)[C@H](O)/C=C/C)c(C)c1` (relative stereo): the inhibition result in series [1], in series [2] and in series [3] was “inactive” in each case.
Consider `C=C(CO)[C@H]1C[C@@]2(C)C(=C[C@@H]1O)C[C@H](O)C[C@@H]2C`, for which the inhibition entry in series [1], in series [2] and in series [3] was “inactive” each time.
As to `C=C(CO)[C@]12O[C@H]1[C@]1(C)C(=C[C@H]2OC(C)=O)CCC[C@H]1C`, the inhibition result in series [1], in series [2] and in series [3] was “inactive” in each case.
`C=C(CO)[C@@H]1CC=C2C[C@@H](O)[C@H](O)[C@@H](C)[C@]2(C)C1` (relative stereo): the inhibition entry in series [1], in series [2] and in series [3] was “inactive” in each case.
As to `C=C(CO)[C@@]12O[C@@H]1[C@@]1(C)C(=CC2=O)C[C@H](O)C[C@@H]1C`, the inhibition result in series [1], in series [2] and in series [3] was “inactive” in each case.
In the case of `C=C(CO)[C@@]12O[C@@H]1[C@@]1(C)C(=C[C@@H]2OC(C)=O)CC[C@@H](O)[C@@H]1C` (relative stereo), the inhibition result in series [1], in series [2] and in series [3] was “inactive” each time.
In the case of `C=C(CO)c1ccc2c(c1C)[C@@H](C)C[C@H](O)C2=O`, the inhibition entry in series [1], in series [2] and in series [3] was “inactive” throughout.
On to `C=C(CO)c1ccc([C@@H](C)C[C@@H](O)CO)c(C)c1` (relative stereo), for which the inhibition entry in series [1], in series [2] and in series [3] was “inactive” throughout. For the same compound, the inhibition result in series [4] is “Active”. Further, the Activity result with HEK293 is “Non-Toxic”.
On to `C=C(CO)[C@H]1CC=C2CC[C@@H](O)[C@H](C)[C@@]2(C)C1`, for which the inhibition result in series [1], in series [2] and in series [3] was “inactive” in each case. Moreover, in series [4], the inhibition result was “Active”. The Activity entry with HEK293 is reported as “Non-Toxic”.
Take `C=C(CO)[C@@]12O[C@@H]1[C@@]1(C)C(=C[C@@H]2O)C=C[C@@H](O)[C@@H]1C`: the inhibition entry in series [1], in series [2] and in series [3] was “inactive” in each case.
On to `C=C(CO)[C@@]12O[C@@H]1[C@@]1(C)C(=C[C@@H]2OC(C)=O)C=C[C@@H](O)[C@@H]1C`, for which the inhibition entry in series [1], in series [2] and in series [3] was “inactive” in each case.
Take `C[C@H]1CC(=O)C=C2C=CC(=C(CO)CO)[C@H](O)[C@@]21C`: the inhibition result in series [1], in series [2] and in series [3] was “inactive” throughout.
